The results in this text go back to patent US8247211B2, “Glycopeptide antibiotics” (American Cyanamid Company, priority 2001, dated 2012).

Converted amounts (≈) assume the structure as drawn.

One data set concerns Streptococcus sp. Put plainly: In vitro antibacterial evaluation: minimum inhibitory concentration (MIC), broth dilution method. Format: cell-based. An outline of the steps:
(§1)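 MIC read as lowest drug level preventing visible growth. Organisms at 5×10^5 CFU/mL were exposed to a 64-0.06 μg/mL dilution series in Muller-Hinton II […] following NCCLS broth dilution standard M7-A2.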
(In general: Dilution methods test growth across graded concentrations, often in twofold steps.)

Data set [1] has as its system Staphylococcus aureus-SMITH (GC 4543). The data set is described as follows: Acute lethal infection in mice (ED50). Format: in vivo. The note with it: female CD-1 mice, intraperitoneal challenge, intravenous dose 30 min. after infection, 7 day survival ratios. An outline of the steps:
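Groups of five female CD-1 mice per dose got intravenous antibiotic in saline or 5% dextrose half an hour after intraperitoneal infection sufficient to kill controls within 24-48 hr. Seven-day survival data from three experiments were combined to derive ED50.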

The nature of data set [2]: Anatomic pathology (heart and kidney histopathology) in mice. Format: in vivo, CD-1 mice. As to conditions: 20 mg/kg intravenously daily for 9 days, microscopic histopathology on day 10. How it is done:
20-day-old CD-1 mice were divided into a vehicle control group (5 mice) and a treatment group (5 mice). Samples of glycopeptide antibiotics were administered at 20 mg/kg intravenously daily for 9 days.
Samples of tissues from necropsied mice were formalin-fixed, paraffin-embedded, sectioned, stained with hematoxylin and eosin, and examined microscopically. Histopathologic findings were recorded. These findings were subjectively graded on a scale corresponding to slight, mild, moderate, marked and severe as compared to untreated controls.

Another data set deals with Escherichia coli. Put plainly: In vitro antibacterial evaluation: minimum inhibitory concentration (MIC), broth dilution method. Format: cell-based. As to conditions: strain GC 4560. An outline of the steps:
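Using Muller-Hinton II […] and an inoculum of 5×10^5 CFU/mL, antibiotic dilutions from 64 down to 0.06 μg/mL were tested following NCCLS M7-A2. The MIC is the lowest concentration inhibiting growth, including in methicillin-, penicillin- or vancomycin-resistant clinical isolates.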

The next data set deals with Enterococcus sp. Described as above. Format: cell-based. The note with it: for MIC Enterococcus avium (GC 4558): strain GC 4558. The essentials:
as §1

In the next data set the test system is Staphylococcus sp. The description is as above. Format: cell-based. As to conditions: broth dilution, 18 hours at 35° C. The essentials: as §1
Where [3] appears, read: Streptococcus pneumoniae (GC 1894), broth dilution, 18 hours at 35° C.
[4] abbreviates: Streptococcus pneumoniae (GC 4565), broth dilution, 18 hours at 35° C.

Take `CC(c1ccccc1)C1NC(=O)CNC(=O)C(CO)NC(=O)C(C(O)C2CN(Cc3ccccc3)C(=N)N2C2OC(CO)C(O)C(O)C2O)NC(=O)C(C(O)C2CNC(=N)N2)NC(=O)C(Cc2ccc(OC3OC(CO)C(OC4OC(CO)C(O)C(O)C4O)C(O)C3O)cc2)NC1=O` (stereo not drawn) [Example 59, Cyclo[glycyl-β-methylphenylalanyl-O-(4-O-hexopyranosylhexopyranosyl)tyrosyl-(2-iminoimidazolidin-4-yl)seryl-3-[1-benzyl-3-hexopyranosyl-2-iminoimidazolidin-4-yl]serylseryl]]: the “MIC Streptococcus pneumoniae (GC 1894)” value in the data set with Streptococcus sp. (setting [3]) and in the data set on Streptococcus sp. (strain GC 1894) was 64 µg/mL (≈ 46.2 µM) each time. Further, the “median effective dose (ED50), Staphylococcus aureus-SMITH (GC 4543)” value (from here on “median effective dose (ED50)”) in data set [1] was over 8. For the same molecule, the “Anatomical Pathology (Day 10), Heart” value in data set [2] was determined as 0. In addition, the “Anatomical Pathology (Day 10), Kidney” value in data set [2] was found to be 0.
As to `CC(c1ccccc1)C1NC(=O)CNC(=O)C(CO)NC(=O)C(C(O)C2CN(Cc3ccc(C(C)(C)C)cc3)C(=N)N2C2OC(CO)C(O)C(O)C2O)NC(=O)C(C(O)C2CNC(=N)N2)NC(=O)C(Cc2ccc(OC3OC(CO)C(OC4OC(CO)C(O)C(O)C4O)C(O)C3O)cc2)NC1=O` (stereo not drawn) [Example 60, Cyclo[glycyl-β-methylphenylalanyl-O-(4-O-hexopyranosylhexopyranosyl)tyrosyl-(2-iminoimidazolidin-4-yl)seryl-3-[1-(4-tert-butylbenzyl)-3-hexopyranosyl-2-iminoimidazolidin-4-yl]-serylseryl]], the “MIC Streptococcus pneumoniae (GC 1894)” value in the data set on Streptococcus sp. (setting [3]) turned out to be 64 µg/mL (≈ 44.4 µM). In addition, the “MIC Streptococcus pneumoniae (GC 1894)” value against Streptococcus sp. (strain GC 1894) is 64 µg/mL (≈ 44.4 µM). Besides, in the data set with Escherichia coli, the “MIC Escherichia coli (GC 4560)” value stood at 16 µg/mL (≈ 11.1 µM). The “median effective dose (ED50)” value in data set [1] was over 8. Also, in data set [2], the “Anatomical Pathology (Day 10), Heart” value was 0 and the “Anatomical Pathology (Day 10), Kidney” value is reported as 0.
`CC(c1ccccc1)C1NC(=O)CNC(=O)C(CO)NC(=O)C(C(O)C2CN(CCCCCCCCCCCCO)C(=N)N2C2OC(CO)C(O)C(O)C2O)NC(=O)C(C(O)C2CNC(=N)N2)NC(=O)C(Cc2ccc(OC3OC(CO)C(OC4OC(CO)C(O)C(O)C4O)C(O)C3O)cc2)NC1=O` (stereo not drawn) [Example 61]: the “MIC Enterococcus avium (GC 4558)” value in the data set with Enterococcus sp. came out at 64 µg/mL (≈ 43.3 µM). Besides, the “MIC Streptococcus pneumoniae (GC 1894)” value in the data set on Streptococcus sp. (setting [3]) and against Streptococcus sp. (strain GC 1894) was 64 µg/mL (≈ 43.3 µM) in each case. In addition, the “MIC Streptococcus pneumoniae (GC 4565)” value against Streptococcus sp. (setting [4]) and in the data set on Streptococcus sp. (strain GC 4565) was 64 µg/mL (≈ 43.3 µM) each time. For the same molecule, the “MIC Escherichia coli (GC 4560)” value against Escherichia coli is 8 µg/mL (≈ 5.41 µM). In addition, the “median effective dose (ED50)” value in data set [1] is reported as over 8. In addition, the “Anatomical Pathology (Day 10), Heart” value in data set [2] stood at 0. In addition, in data set [2], the “Anatomical Pathology (Day 10), Kidney” value is “+++”.
With `CC(c1ccccc1)C1NC(=O)CNC(=O)C(CO)NC(=O)C(C(O)C2CN(Cc3ccccc3-c3ccccc3)C(=N)N2C2OC(CO)C(O)C(O)C2O)NC(=O)C(C(O)C2CNC(=N)N2)NC(=O)C(Cc2ccc(OC3OC(CO)C(OC4OC(CO)C(O)C(O)C4O)C(O)C3O)cc2)NC1=O` (stereo not drawn) [Example 65], in the data set with Escherichia coli, the “MIC Escherichia coli (GC 4560)” value is 32 µg/mL (≈ 21.9 µM). For the same molecule, the “median effective dose (ED50)” value in data set [1] is over 8. For the same molecule, in data set [2], the “Anatomical Pathology (Day 10), Heart” value turned out to be 0 and the “Anatomical Pathology (Day 10), Kidney” value was “+++”.
For `CC(c1ccccc1)C1NC(=O)CNC(=O)C(CO)NC(=O)C(C(O)C2CN(Cc3ccc(-c4ccccc4)cc3)C(=N)N2C2OC(CO)C(O)C(O)C2O)NC(=O)C(C(O)C2CNC(=N)N2)NC(=O)C(Cc2ccc(OC3OC(CO)C(OC4OC(CO)C(O)C(O)C4O)C(O)C3O)cc2)NC1=O` (stereo not drawn) [Example 66a], in that order: 8 µg/mL (≈ 5.47 µM), over 4, 0 and “++”.
`CC(c1ccccc1)C1NC(=O)CNC(=O)C(CO)NC(=O)C(C(O)C2CN(Cc3ccc4ccccc4c3)C(=N)N2C2OC(CO)C(O)C(O)C2O)NC(=O)C(C(O)C2CNC(=N)N2)NC(=O)C(Cc2ccc(OC3OC(CO)C(OC4OC(CO)C(O)C(O)C4O)C(O)C3O)cc2)NC1=O` (stereo not drawn) [Example 67]: the “MIC Enterococcus avium (GC 4558)” value in the data set with Enterococcus sp. was 64 µg/mL (≈ 44.6 µM). Further, the “MIC Streptococcus pneumoniae (GC 1894)” value in the data set with Streptococcus sp. (setting [3]) is 64 µg/mL (≈ 44.6 µM). In addition, the “MIC Streptococcus pneumoniae (GC 1894)” value against Streptococcus sp. (strain GC 1894) was 64 µg/mL (≈ 44.6 µM). Moreover, the “MIC Escherichia coli (GC 4560)” value in the data set with Escherichia coli was 32 µg/mL (≈ 22.3 µM). In addition, the “median effective dose (ED50)” value in data set [1] is listed as over 8. Besides, in data set [2], the “Anatomical Pathology (Day 10), Heart” value is listed as 0 and the “Anatomical Pathology (Day 10), Kidney” value was found to be 0.
Consider `CC(c1ccccc1)C1NC(=O)CNC(=O)C(CO)NC(=O)C(C(O)C2CN(CCCCCCCCCCC(=O)O)C(=N)N2C2OC(CO)C(O)C(O)C2O)NC(=O)C(C(O)C2CNC(=N)N2)NC(=O)C(Cc2ccc(OC3OC(CO)C(OC4OC(CO)C(O)C(O)C4O)C(O)C3O)cc2)NC1=O` (stereo not drawn) [Example 72, Cyclo[glycyl-β-methylphenylalanyl-O-(4-O-hexopyranosylhexopyranosyl)tyrosyl-3-(2-iminoimidazolidin-4-yl)seryl-3-[1-(10-carboxydecyl)-3-hexopyranosyl-2-iminoimidazolidin-4-yl]serylseryl]], for which the “MIC Enterococcus faecalis (GC 4553)” value in the data set on Enterococcus sp. (strain GC 4553) worked out at 64 µg/mL (≈ 43.3 µM). Further, the “MIC Enterococcus avium (GC 4558)” value against Enterococcus sp. came to 64 µg/mL (≈ 43.3 µM). Moreover, the “MIC Streptococcus pneumoniae (ATCC 6301)” value turned out to be 64 µg/mL (≈ 43.3 µM) against Streptococcus sp. (Streptococcus pneumoniae (ATCC 6301), broth dilution, 18 hours at 35° C.) and 64 µg/mL (≈ 43.3 µM) in the data set with Streptococcus sp. (strain ATCC 6301). The “MIC Streptococcus pneumoniae (GC 1894)” value in the data set with Streptococcus sp. (setting [3]) and in the data set on Streptococcus sp. (strain GC 1894) was 16 µg/mL (≈ 10.8 µM) throughout. In addition, the “MIC Streptococcus pneumoniae (GC 4565)” value with Streptococcus sp. (setting [4]) and in the data set with Streptococcus sp. (strain GC 4565) was 64 µg/mL (≈ 43.3 µM) in each case. Further, the “MIC Streptococcus pyogenes (GC 4563)” value in the data set with Streptococcus sp. (Streptococcus pyogenes (GC 4563), broth dilution, 18 hours at 35° C.) was 64 µg/mL (≈ 43.3 µM); in the data set with Streptococcus sp. (strain GC 4563), 64 µg/mL (≈ 43.3 µM). In addition, in the data set with Escherichia coli, the “MIC Escherichia coli (GC 4560)” value was 32 µg/mL (≈ 21.6 µM). Also, the “median effective dose (ED50)” value in data set [1] is given as over 8. Further, in data set [2], the “Anatomical Pathology (Day 10), Heart” value was 0. Also, in data set [2], the “Anatomical Pathology (Day 10), Kidney” value was “++”.
Consider `CN=C1N(C)CC(C(O)C2NC(=O)C(Cc3ccc(OC4OC(CO)C(OC5OC6COC7(OC6C(O)C5O)C5CC6CC(C5)CC7C6)C(O)C4O)cc3)NC(=O)C(C(C)c3ccccc3)NC(=O)CNC(=O)C(CO)NC(=O)C(C(O)C3CN(C)C(=NC)N3C3OC(CO)C(O)C(O)C3O)NC2=O)N1C` (stereo not drawn) [Example 81], for which, in the data set on Staphylococcus sp., the “MIC Coagulase Negative Staphylococcus (GC 4547)” value was over 128 µg/mL, the “MIC Coagulase Negative Staphylococcus (GC 4548)” value is over 128 µg/mL, the “MIC Coagulase Negative Staphylococcus (GC 4549)” value was over 128 µg/mL and the “MIC Coagulase Negative Staphylococcus (GC 4551)” value is over 128 µg/mL. Further, in the data set on Staphylococcus sp., the “MIC Coagulase Negative Staphylococcus (GC 6257)” value was over 128 µg/mL, the “MIC Staphylococcus aureus (ATCC 29213)” value is over 128 µg/mL, the “MIC Staphylococcus aureus (GC 1131)” value was over 128 µg/mL and the “MIC Staphylococcus aureus (GC 3051)” value was over 128 µg/mL. In the data set with Staphylococcus sp., the “MIC Staphylococcus aureus (GC 3053)” value was over 128 µg/mL, the “MIC Staphylococcus aureus (GC 4541)” value is over 128 µg/mL, the “MIC Staphylococcus aureus (GC 4542)” value is over 128 µg/mL and the “MIC Staphylococcus aureus (GC 4544)” value was over 128 µg/mL. For the same molecule, in the data set on Staphylococcus sp., the “MIC Staphylococcus aureus (GC 4545)” value is over 128 µg/mL and the “MIC Staphylococcus aureus SMITH (GC 4543)” value was over 128 µg/mL. Further, in data set [1], the “median effective dose (ED50)” value was over 8. In addition, in data set [2], the “Anatomical Pathology (Day 10), Heart” value is given as 0 and the “Anatomical Pathology (Day 10), Kidney” value worked out at 0.
